For data set [1], the system named is toxic extensor seizure (maximal electroshock test). The data set is described as follows: Mouse anticonvulsant model, maximal electroshock test (MES). It is filed as in vivo. The settings on record: for ED50: ip; for MES ED50 (Active @ 30): active at dose 30; for MES ED50 (Active @ 100): active at dose 100. The method, then: Procedure for Testing in Mouse Anticonvulsant Model
The compounds of Formula (I) and Formula (II) are useful as anticonvulsant agents. The anticonvulsant activity of the subject compounds was determined using a standard “maximal electroshock test” (MES). In this test, activity is indicated by a block of the toxic extensor seizure, as described by Swinyard, et al., in J. PharmacoL Exptl. Therap., 106, 319 (1952). A more recent description of current anticonvulsant drug screening is given in Swinyard, et al., in Epilepsia, 19, 409 (1978).
The anticonvulsant activity of compounds of this invention tested according to the Swinyard (1952) method are shown in Table 3, having values for the Mouse MES Model in ED50 per dose (in mg/kg, i.p.).
(The maximal electroshock test induces tonic seizures with an electrical stimulus.)

Data set [2] deals with mechanical allodynia (paw withdrawal threshold). The data set is described as follows: Neuropathic pain model (Chung Model), spinal nerve ligation, mechanical allodynia with von Frey hairs. The data set is classed as in vivo, Sprague-Dawley rats. To be noted: for inhibition in vivo at 30 mg/kg: read-out: % MPE. The method, then: Procedure for Testing in a Neuropathic Pain Model
The compounds of the present invention are useful in the treatment of neuropathic pain. The use of the compounds in treating neuropathic pain was determined using an animal model. This model was developed and first described by S. H. Chung and J. M. Chung, An Experimental Model for Peripheral Neuropathy Produced by Segmental Spinal Nerve Ligation in the Rat, Pain, 1992, 50, 355-363 (referred to hereinafter as the “Chung Model”).
Male Sprague-Dawley rats, weighing approximately 200 g each were anesthetized with isoflurane. The spinal nerve at the level of L5 was exposed through an incision just left of the dorsal midline and tightly ligated with 6-0 silk. At various times after surgery, animals were tested for mechanical allodynia with von Frey hairs (monofilaments which are calibrated to bend under a certain amount of pressure, ranging from 0.41 to 15.1 g). In order to calculate a paw withdrawal threshold (PWT), tactile allodynia was measured by recording the pressure at which the affected paw was withdrawn from graded stimuli according to the procedure of S. R. Chaplan, J. W. Pogrel, T. L. Yaksh, Role of Voltage-Dependent Calcium Channel Subtypes in Experimental Tactile Allodynia, J. Pharmacol. Exp. Ther. 1994, 269,1117-1123. Normal rats can withstand at least 15 g of pressure without responding. Operated rats, however, can respond to as little as 0.25 g of pressure. The surgery was deemed successful if the animal responded with a PWT of less than 4 g of pressure applied to the affected paw.
The sham operation consisted of a similar surgery; the spinal nerve was visualized without being ligated. […] The results of the assay were expressed as percent of the maximum possible effect (% MPE), calculated as the PWT at the time of testing minus the baseline PWT divided by the maximum PWT (15 g) minus the baseline PWT times 100.
The compounds having Formula (I) and Formula (II) were tested for activity against neuropathic pain by being dissolved or suspended in either water or hydroxypropyl methylcellulose, respectively. Postoperative animals between 14 to 42 days were fasted overnight prior to dosing. Animals were orally dosed and dosage volumes were calculated on a 4 mL/kg basis. The screening dose employed was 30 mg/kg.

[3] abbreviates: Chung Model rat, antiallodynic activity, oral screening dose 30 mg/kg.

Counter-ions that a name gives are not always drawn. Like-named read-outs stand apart in the source and are kept apart here.

What is called melting point is the temperature, or range, at which the solid turns liquid. Take `CCN(CC)CC(=O)c1cc(C(=O)c2cccs2)cn1C` (as salt: HCl) [Cpd 2, 1-[4-(2-Thienoyl)-1-methyl-1H-pyrrol-2-yl]-2-(N,N-diethylamino)ethanone]: the melting point fell in the range of 196 to 198 °C.

The molecule `CCN(CC)CC(=O)c1cc(C(=O)c2cccc3ccccc23)cn1C` (as salt: HCl) [Cpd 3, 1-[4-(1-Naphthalenoyl)-1-methyl-1H-pyrrol-2-yl]-2-(N,N-diethylamino)ethanone] displayed a melting point of 222 to 224 °C.

`Cn1cc(C(=O)c2cccc3ccccc23)cc1C(=O)CN1CCCCC1` (as salt: HCl) [Cpd 4, 1-[4-(1-Naphthalenoyl)-1-methyl-1H-pyrrol-2-yl]-2-(1-piperidinyl)ethanone] had a melting point of 246 to 248 °C.

With `CC(N(C)C)n1cc(C(=O)c2ccc3ccccc3c2)cc1C(=O)CN1CCCCC1` (stereo not shown) (as salt: HCl) [Cpd 5, 1-[4-(2-Naphthalenoyl)-1-(N,N-dimethylaminoeth-2-yl)-1H-pyrrol-2-yl]-2-(1-piperidinyl)ethanone], the melting point was 239 to 242 °C.

`Cn1cc(C(=O)CCN2CCCCC2)cc1C(=O)c1cccc2ccccc12` (as salt: HCl) [Cpd 8, 1-[5-(1-Naphthalenoyl)-1-methyl-1H-pyrrol-3-yl]-3-(1-piperidinyl)-1-propanone] came in with a melting point of 141 to 143 °C.

`CCCOn1cc(C(=O)CN(CC)CC)cc1C(=O)c1ccc(Cl)cc1` (as salt: HCl) [Cpd 9, 1-[5-(4-Chlorobenzoyl)-1-ethylmethoxy-1H-pyrrol-3-yl]2-[N,N-diethylamino]ethanone] displayed a melting point of 149 to 151 °C.

`CCN(CC)CC(=O)c1cc(C(=O)c2cccnc2)n(C)c1` (as salt: HCl) [Cpd 12, 1-[5-(3-Pyridinoyl)-1-methyl-1H-pyrrol-3-yl]-2-(N,N-diethylamino)ethanone]: the melting point is 158 to 160 °C (dec.).

`CCN(CC)CC(=O)c1cc(C(=O)c2ccc3ccccc3c2)n(C)c1` (as salt: HCl) [Cpd 13, 1-[5-(2-Naphthalenoyl)-1-methyl-1H-pyrrol-3-yl]-2-(N,N-diethylamino)ethanone]: the melting point was in the range of 195 to 196 °C.

`CCC(N(C)C)n1cc(C(=O)CN2CCCCC2)cc1C(=O)c1ccc(Cl)cc1` (stereo not shown) (as salt: HCl) [Cpd 14, 1-[5-(4-Chlorobenzoyl)-1-(N,N-dimethylaminoprop-3-yl) -1H-pyrrol-3-yl]-2-(1-piperidinyl)ethanone] had a melting point of 138 to 141 °C.

Take `CCSCn1cc(C(=O)CN(CC)CC)cc1C(=O)c1ccccc1Cl` (as salt: HCl) [Cpd 16, 1-[5-(2-Chlorobenzoyl)-1-ethylthiomethyl-1H-pyrrol-3-yl]-2-(N,N-diethylamino)ethanone]: the melting point fell in the range of 157 to 158 °C.

The molecule `Cn1cc(C(=O)c2ccc3ccccc3c2)cc1C(=O)CN1CCCCC1` (as salt: HCl) [Cpd 17, 1-[4-(2-Naphthalenoyl)-1-methyl-1H-pyrrol-2-yl]-2-(1-piperidinyl)ethanone] showed a melting point of 246 to 248 °C.

On to `CCN(CC)CC(=O)c1cc(C(=O)c2ccc3ccccc3c2)cn1C` (as salt: fumarate) [Cpd 1, 1-[4-(2-Naphthalenoyl)-1-methyl-1H-pyrrol-2-yl]-2-(N,N-diethylamino)ethanone], for which the melting point was in the range of 130 to 132 °C.

For the molecule `CCN(CC)CC(=O)c1cc(C(=O)c2cccs2)n(C)c1` (as salt: salt) [Cpd 10, 1-[5-(2-Thienoyl)-1-methyl-1H-pyrrol-3-yl]-2-(N,N-diethylamino)ethanone], the melting point is 153 to 155 °C.

The term ED50 denotes the dose that gives a 50% effect, or the effect in half of the subjects. `CCN(CC)CC(=O)c1cc(C(=O)c2ccc3ccccc3c2)cn1C` [Cpd 1, 1-[4-(2-Naphthalenoyl)-1-methyl-1H-pyrrol-2-yl]-2-(N,N-diethylamino)ethanone] returned an ED50 in data set [1] of 11 mg/kg. Besides, the inhibition in vivo at 30 mg/kg in data set [2] (setting [3]) was 80%.

As for `CCN(CC)CC(=O)c1cc(C(=O)c2cccs2)cn1C` [Cpd 2, 1-[4-(2-Thienoyl)-1-methyl-1H-pyrrol-2-yl]-2-(N,N-diethylamino)ethanone], in data set [1] (i.p.), the “MES ED50 (Active @ 30)” value is “Active @ 30”. Moreover, the inhibition in vivo at 30 mg/kg in data set [2] (setting [3]) amounted to 14%.

As for `CCN(CC)CC(=O)c1cc(C(=O)c2cccc3ccccc23)cn1C` [Cpd 3, 1-[4-(1-Naphthalenoyl)-1-methyl-1H-pyrrol-2-yl]-2-(N,N-diethylamino)ethanone], the “MES ED50 (Active @ 30)” value in data set [1] (i.p.) is reported as “Active @ 30”. The inhibition in vivo at 30 mg/kg in data set [2] (Rattus norvegicus, po) was 87%.

Turning to `Cn1cc(C(=O)c2cccc3ccccc23)cc1C(=O)CN1CCCCC1` [Cpd 4, 1-[4-(1-Naphthalenoyl)-1-methyl-1H-pyrrol-2-yl]-2-(1-piperidinyl)ethanone], the “MES ED50 (Active @ 30)” value in data set [1] (i.p.) is “Active @ 30”. In data set [2] (Rattus norvegicus, po), the inhibition in vivo at 30 mg/kg was 12%.

Consider `CCN(CC)CC(=O)c1cc(-c2ccc(Cl)s2)n(C)c1` [Cpd 6, 1-[5-(5-Chlorothieno-2-yl)-1-methyl-1H-pyrrol-3-yl]-2-(N,N-diethylamino)ethanone], for which, in data set [1] (i.p.), the “MES ED50 (Active @ 30)” value was “Active @ 30”. Further, the “% MPE” value in data set [2] (setting [3]) was found to be 54 % MPE.

With `CN1CCN(CC(=O)c2cc(C(=O)c3ccc(Cl)cc3)n(C)c2)CC1` [Cpd 7, 1-[5-(4-Chlorobenzoyl)-1-methyl-1H-pyrrol-3-yl]-2-(4-methyl-1-piperazinyl)ethanone], the ED50 in data set [1] came to 16.6 mg/kg. In data set [2] (setting [3]), the inhibition in vivo at 30 mg/kg was 21%.

On to `Cn1cc(C(=O)CCN2CCCCC2)cc1C(=O)c1cccc2ccccc12` [Cpd 8, 1-[5-(1-Naphthalenoyl)-1-methyl-1H-pyrrol-3-yl]-3-(1-piperidinyl)-1-propanone], for which the “MES ED50 (Active @ 30)” value in data set [1] (i.p.) was “Active @ 30”. In addition, the inhibition in vivo at 30 mg/kg in data set [2] (Rattus norvegicus, po) came to 25%.

On to `CCCOn1cc(C(=O)CN(CC)CC)cc1C(=O)c1ccc(Cl)cc1` [Cpd 9, 1-[5-(4-Chlorobenzoyl)-1-ethylmethoxy-1H-pyrrol-3-yl]2-[N,N-diethylamino]ethanone], for which, in data set [1] (i.p.), the “MES ED50 (Active @ 100)” value is given as “Active @ 100”. The inhibition in vivo at 30 mg/kg in data set [2] (setting [3]) amounted to 5%.

With `CCN(CC)CC(=O)c1cc(C(=O)c2cccs2)n(C)c1` [Cpd 10, 1-[5-(2-Thienoyl)-1-methyl-1H-pyrrol-3-yl]-2-(N,N-diethylamino)ethanone], in data set [1] (i.p.), the “MES ED50 (Active @ 100)” value is reported as “Active @ 100”. In addition, the inhibition in vivo at 30 mg/kg in data set [2] (setting [3]) worked out at 0%.

Molecule `Cn1cc(C(=O)CN2CCCCC2)cc1C(=O)c1cccs1` [Cpd 11, 1-[5-(2-Thienoyl)-1-methyl-1H-pyrrol-3-yl]-2-(1-piperidinyl)ethanone] showed a melting point of 178 to 179 °C. Moreover, in data set [1] (i.p.), the “MES ED50 (Active @ 30)” value was “Active @ 30”. Besides, the inhibition in vivo at 30 mg/kg in data set [2] (setting [3]) was determined as 34%.

Consider `CCN(CC)CC(=O)c1cc(C(=O)c2cccnc2)n(C)c1` [Cpd 12, 1-[5-(3-Pyridinoyl)-1-methyl-1H-pyrrol-3-yl]-2-(N,N-diethylamino)ethanone], for which the “MES ED50 (Active @ 100)” value in data set [1] (i.p.) is “Active @ 100”. Also, the inhibition in vivo at 30 mg/kg in data set [2] (setting [3]) was 4%.

With `CCN(CC)CC(=O)c1cc(C(=O)c2ccc3ccccc3c2)n(C)c1` [Cpd 13, 1-[5-(2-Naphthalenoyl)-1-methyl-1H-pyrrol-3-yl]-2-(N,N-diethylamino)ethanone], the “MES ED50 (Active @ 300)” value in data set [1] (i.p., active at dose 300) is “Active @ 300”. For the same molecule, the inhibition in vivo at 30 mg/kg in data set [2] (setting [3]) came to 80%.

As for `CCN(C)CC(=O)c1cc(C(=O)c2ccc3ccccc3c2)n(C)c1` [Cpd 15, 1-[5-(2-Naphthalenoyl)-1-methyl-1H-pyrrol-3-yl]-2-(N,N-ethylmethylamine)ethanone], in data set [1] (i.p.), the “MES ED50 (Active @ 30)” value was “Active @ 30”. Further, the “% MPE” value in data set [2] (setting [3]) stood at 40 % MPE.

The values are drawn from patent US6573267B2, “Useful aroyl aminoacyl pyrrole compounds” (Ortho-McNeil Pharmaceutical, Inc., priority 2000, dated 2003).
